Measurements as given in patent US4868203A, “Bacterial substance and pharmaceutical composition thereof” (Kabushikikaisha Ueno Seiyaku Oyo Kenkyujo, priority 1986, dated 1989).
≈ marks a conversion by molar mass, not a printed value.

Legend:
[1] = system: Xanthomonas campestris PV citri
Pasteurella piscicida = assay: microbe, parasite or virus in culture; type: cell-based; details: Photobacterium damselae
[2] = Storage life of kamaboko, rot-proof property (Test Example 4); details: 0.2%, pH 6.58, 30° C.
Procedure: Fish paste was prepared by adding NaCl (2.5%), chemical seasoning (0.8%), starch (5%) and ice water (10%) based on frozen surimi of walleye pollack (4 kg) and cutting by a silent cutter for 10 minutes. Predetermined amount of bacterial substance UFC-N11 based on the resulting fish paste (2 kg) was added and completely mixed in a small mixer for 5 minutes. About 100 g fish paste were enclosed with polyvinylidene chloride film (spread width:45 mm), boiled at 90° C. for 30 minutes, quenched, left overnight and then tested for rot-proof property.
The test was conducted as follows. As the complete package products, 10 pieces/group of kamaboko processed by casing method samples and, as the simplified package products, 10 pieces/group prepared by peeling off the casing under sterilized condition, cutting into 2 round slices (thickness: 10 mm) by a sterilized knife and placing in a sterilized plastic Petri dish. were placed in a thermostatic chamber at 30° C. and evaluated by macroscopically observation. The evaluation uses five-level scale shown below. The period until the average evaluation value of 1 is attained is defined as the storage life.

Row | SMILES | Prevention ([1]; Streptomycin, concentration printed as 0 ppm, 14 days) | Damage ([1]; in vivo) | MIC (Pasteurella piscicida; strain AT-1) | MIC (Pasteurella piscicida; strain AT-17) | MIC (Pasteurella piscicida; strain KGP86041) | MIC (Pasteurella piscicida; strain MEP35) | MIC (Pasteurella piscicida; strain MEP151) | MIC (Pasteurella piscicida; strain MS86115) | MIC (Pasteurella piscicida; strain MS86169) | MIC (Pasteurella piscicida; strain SP6275) | MIC (Pasteurella piscicida; strain SP6291) | MIC (Pasteurella piscicida; strain WP96) | Storage life, Complete package [2] | Storage life, simplified package [2]
1 | [H]/N=C(/N)N[C@H]1[C@H](O)[C@@H](O)[C@H](O[C@@H]2O[C@@H](C)[C@](O)(C=O)[C@H]2O[C@@H]2O[C@@H](CO)[C@H](O)[C@@H](O)[C@@H]2NC)[C@@H](N/C(N)=N\[H])[C@@H]1O [Streptomycin, reference compound] | 30.3% | nil |  |  |  |  |  |  |  |  |  |  |  | 
2 | CC1(C)S[C@@H]2[C@H](NC(=O)[C@H](N)c3ccccc3)C(=O)N2[C@H]1C(=O)O [Ampicillin] |  |  | > 10 µg/mL | > 10 µg/mL | 0.039 µg/mL (≈ 0.112 µM) | 0.039 µg/mL (≈ 0.112 µM) | > 10 µg/mL | 0.039 µg/mL (≈ 0.112 µM) | > 10 µg/mL | 0.039 µg/mL (≈ 0.112 µM) | > 10 µg/mL | 0.078 µg/mL (≈ 0.223 µM) |  | 
3 | C/C=C/C=C/C(=O)O [Sorbic acid, reference compound] |  |  |  |  |  |  |  |  |  |  |  |  | 12.0 days | 7.0 days
4 | O=C(O)c1ccc(/C=C/c2ccc([N+](=O)[O-])o2)cc1 [Nifurstyrenic acid] |  |  | 1.25 µg/mL (≈ 4.82 µM) | 0.31 µg/mL (≈ 1.2 µM) | 2.5 µg/mL (≈ 9.64 µM) | 2.5 µg/mL (≈ 9.64 µM) | 0.31 µg/mL (≈ 1.2 µM) | 0.31 µg/mL (≈ 1.2 µM) | 2.5 µg/mL (≈ 9.64 µM) | 0.63 µg/mL (≈ 2.43 µM) | 0.16 µg/mL (≈ 0.617 µM) | 0.31 µg/mL (≈ 1.2 µM) |  | 
5 | CCn1cc(C(=O)O)c(=O)c2cc3c(cc21)OCO3 [Oxolinic acid] |  |  | 1.25 µg/mL (≈ 4.79 µM) | 1.25 µg/mL (≈ 4.79 µM) | 0.078 µg/mL (≈ 0.299 µM) | 1.25 µg/mL (≈ 4.79 µM) | 1.25 µg/mL (≈ 4.79 µM) | 1.25 µg/mL (≈ 4.79 µM) | 0.078 µg/mL (≈ 0.299 µM) | 1.25 µg/mL (≈ 4.79 µM) | 0.039 µg/mL (≈ 0.149 µM) | 0.039 µg/mL (≈ 0.149 µM) |  | 
